From PMC3578765 (PLoS Neglected Tropical Diseases, 2013) come the findings set out here.

For orientation: IC50 means the midpoint of a concentration-inhibition curve. A word on the EC50: it is the concentration needed to bring the measured effect to its halfway point.

Series [1] deals with BR DEN2 01-01 infection of Huh-7.5. The series is described as follows: assay validation with reference compounds, 10-pt DRC of percent infection. The format is cell-based, Dengue virus. To be noted: percent infection normalized against DENV2-infected Huh-7.5, M.O.I. 0.5, read-out: IC50. How it is done: (§1) An immunofluorescence assay (IFA) used to detect dengue infection was optimized for the dengue HT/HCA. Briefly, cells were fixed with 4% (w/v) paraformaldehyde (PFA) for 20 min at room temperature (Rm T). PFA-fixed cells were treated with 0.25% (v/v) Triton-X for 20 min at Rm T. DENV-infected cells were detected by probing with 4G2 mAb prepared in blocking buffer: DPBS containing 5% FBS for 30 min at 37°C, followed by AlexaFluor-conjugated goat anti-mouse IgG (H+L) (Invitrogen Molecular Probes, USA) prepared in blocking buffer for 30 min at 37°C. Cell nuclei counterstained with 5 µg/mL 4′,6-diamidino-2-phenylindole (DAPI, Sigma-Aldrich, USA). Two washing cycles of DPBS was done after each step of the IFA. After the final washing, digital images were acquired using a high-throughput confocal fluorescence imaging system (Evotec Technologies High-Throughput Cell Analyzer Opera, Perkin Elmer, USA). The digital images were taken from 3 different fields of each well at 20× magnification.
(§2) Acquired images were analyzed using our in-house developed image-mining platform (IM). This platform is designed to do high-content screening and directly access the database of images that were sequentially analyzed with specially designed algorithms developed as a customized plug-in to the IM platform. The results of all the analyses were stored in a centralized database. […] One channel (DAPI-channel) captures the signal emitted by DAPI-stained nuclei at 450 nm, while the other channel (A488-channel) captures the signal emitted by the AlexaFluor 488 dye bound to the dengue E protein-antibody complexes confined in the cytoplasm of dengue-infected cells at 540 nm. To define the percentage of dengue-infected cells and, conversely the non-infected cells, a modified watershed method was applied. Compared to the original watershed algorithm that uses the morphological gradient image, a weighted gradient image is used for the topographic surface, whose weights are defined as the ridge values computed from the eigen values of the original image. The percentage of non-infected cells, which is also defined as the percent inhibition or percent activity, is derived by using the formula: [1−(A488-positive cells/total cells)]×100%.
(§3) In both validation experiments, Huh-7.5 was mixed with DENV1, DENV2, DENV3 or DENV4 at a M.O.I. of 0.5 or VM only for MOCK-infection and dispensed in designated wells using the Thermo Scientific WellMate automated liquid dispenser. For the first validation experiment, the statistical reliability of the dengue HT/HCA was determined by calculating the Z'-factor for the percent infection or percent inhibition. Briefly, the Z'-factor of a defined parameter is calculated using the formula: 1−[(3σp+3σn)/(|μp−μn|)], where the μp, μn, σp and σn are the means (μ) and standard deviations (σ) of the positive (p) and negative (n) controls. For the second validation experiment, the reference compounds were prepared in 2-fold serial dilutions and dispensed in duplicate wells in the 384-well plate, followed by the Huh-7.5 and DENV mixture (M.O.I. 0.5). Percent infection, percent inhibition, and percent cell number were determined using the customized IM platform plug-in. Scatter-plot distribution was generated using TIBCO Spotfire 4.5.0 (TIBCO Software Inc., Somerville, MA). The ten-point dose-response curves (10-pt DRCs) were plotted using the non-linear regression formula: log (inhibitor) vs. response – variable slope (4 parameters), available in GraphPad Prism 5.04 (GraphPad Software Inc., San Diego, CA). The top and bottom values of the reference compounds were unconstrained when the curve fittings of the 10-pt. DRCs were generated.

For series [2], the system named is Huh-7.5. The series is described as follows: assay validation with reference compounds, percent cell number in DENV2-infected Huh-7.5. To be noted: percent cell number normalized against MOCK-infected Huh-7.5, DENV2-infected cells. How it is done: (§4) Acquired images were analyzed using our in-house developed image-mining platform (IM). This platform is designed to do high-content screening and directly access the database of images that were sequentially analyzed with specially designed algorithms developed as a customized plug-in to the IM platform. The results of all the analyses were stored in a centralized database. […] To define the percentage of dengue-infected cells and, conversely the non-infected cells, a modified watershed method was applied. Compared to the original watershed algorithm that uses the morphological gradient image, a weighted gradient image is used for the topographic surface, whose weights are defined as the ridge values computed from the eigen values of the original image. The percentage of non-infected cells, which is also defined as the percent inhibition or percent activity, is derived by using the formula: [1−(A488-positive cells/total cells)]×100%.
as §3, with “The ten-point dose-response curves (10-pt DRCs) were plotted using the non-linear regression formula: log (inhibitor) vs. response – variable slope (4 parameters), available in GraphPad Prism 5.04 (GraphPad Software Inc., San Diego, CA).” left out
(§5) Similarly, the percent cell number was normalized based on the measured cell number in MOCK-infected (100% cell number) controls according to the formula: % cell number = (Cmeasured/μCMOCK-infect)×100%, where Cmeasured is the measured cell number in the test well and μCMOCK-infect is the average cell number in the MOCK-infected controls. The statistical validity of the dengue high-throughput screening was determined by calculating for the Z'-factor using the 0.5% DMSO-treatment and MOCK-infected Huh-7.5 as negative and positive controls, respectively. In addition, other parameters, including DRC of a reference compound, were used to evaluate the assay performance.

The subject of series [3] is DENV1 (Den1 BR/90) infection in Huh-7.5. The series is described as follows: image-based dengue HT/HCA, 10-pt dose-response hit confirmation, DENV1. Type of series: cell-based. The note with it: Dengue virus, read-out: EC50 DENV1. How it is done: as §1, §2
(§6) The BioFocus kinase inhibitor library were screened against DENV1, DEN2, DENV3 and DENV4 at 10 µM in 0.5% (v/v) DMSO. MOCK-infected Huh-7.5 and IFN-α2A (500 U/mL) were used as positive controls, and the 0.5% DMSO vehicle was used as negative control. Four sets of 15 384-well plates (13 plates designated for test compounds and 2 plates designated for DMSO vehicle control) were used for the primary screening of the BioFocus kinase inhibitor library against each dengue serotype. Each of the 4,000 compounds in the library was tested in single wells. For data normalization and quality control of the screening, each test compound plate contained 16 replicates of the positive and negative controls. After dispensing the test compounds IFN-α2A and DMSO vehicle in the 384-well plates, Huh-7.5 was mixed with DENV1, DENV2, DENV3, or DENV4 to achieve a M.O.I. of 0.5 and dispensed at 5×10^3 cells/well using the Thermo Scientific WellMate automated liquid dispenser. For the MOCK-infected Huh-7.5, the cells were mixed with VM and dispensed under the same conditions as previously stated. Virus infection in the presence of the compounds proceeded at 37°C, 5% CO2 for 96 hrs. Compound activity based on percent inhibition and cell toxicity was assessed by IFA and IM analysis as described above. Scatter-plot distribution of the entire screening was generated using TIBCO Spotfire 4.5.0 (TIBCO Software Inc., Somerville, MA).
(§7) The calculated activity was normalized to a percent inhibition (PI) based on the MOCK-infected cells (100% activity, or zero infection) and dengue-infected cells (0% activity, or maximum measured infection percentage) controls according to the formula: [drawing 1] where: PImeasured - percent inhibition of test compound […]

Series [4] deals with DENV2 (BR DEN2 01-01) infection in Huh-7.5. The series is described as follows: image-based dengue HT/HCA, 10-pt dose-response hit confirmation, DENV2. The format is cell-based. To be noted: Dengue virus, DENV2, Huh7.5; Huh-7.5, M.O.I. 0.5, 96 hrs; read-out: EC50 DENV2. How it is done:
as §1, §2, §6, §7

Series [5] deals with DENV3 (BR DEN3 290-02) infection in Huh-7.5. The series is described as follows: image-based dengue HT/HCA, 10-pt dose-response hit confirmation, DENV3. The note with it: Dengue virus, DENV3, Huh7.5; Huh-7.5, M.O.I. 0.5, 96 hrs; read-out: EC50 DENV3. Type of series: cell-based. How it is done: as §1, §2, §6, §7
For series [6], the system named is DENV4 (DEN4 TVP-360) infection in Huh-7.5. The series is described as follows: image-based dengue HT/HCA, 10-pt dose-response hit confirmation, DENV4. The format is cell-based. The note with it: Dengue virus, DENV4, Huh7.5; Huh-7.5, M.O.I. 0.5, 96 hrs; read-out: EC50 DENV4. How it is done:
as §1, §2, §6, §7

Series [7] can be described thus: compound toxicity, resazurin reduction assay in uninfected Huh-7.5. The format is cell-based. To be noted: human, uninfected Huh-7.5 cells, Huh-7.5 without viral infection, 10-pt DRC. How it is done: The hits identified from the primary screening were also tested at 10 µM against CHIKV-118-GFP infection in HuH-7 cells and evaluated by resazurin reduction assay (RRA). Resazurin (7-Hydroxy-3H-phenoxazin-3-one 10-oxide) is reduced to the red fluorescent resorufin by redox enzymes produced by viable cells, and is a good indication of metabolic capacity, and by extension cell viability. The amount of converted resorufin was measured as relative fluorescence readout (RFU) at excitation/emission of 531/572 nm using a fluorescence spectrophotometer (Victor^3 V Spectrophotometer, Perkin Elmer, USA). Briefly, cells were inoculated with CHIKV-118-GFP at an M.O.I. of 0.5 and seeded in 384-well plates containing reference and primary hit compounds and incubated under humidified conditions for 72 hrs at 37°C. Resazurin solution was added to a final concentration of 10 µM and further incubated for another 12 hrs prior to measurement of RFU. The percent activity of the compounds, reflected by the percent cell viability, was quantified by normalizing against the RFUs of MOCK-infected cells and CHIKV-118-GFP-infected cells. Compounds resulting in normalized RFU ≥70% were considered as positive hits for anti-CHIKV activity.
To confirm the compound activity against dengue viruses, the selected hits from the primary screening were tested in a 10-pt. DRC (2-fold serial dilution from 50 µM) using the same assay described for the dengue HT/HCA. Each concentration of the hit compounds was tested in duplicate wells. Data generated from image analysis of the 10-pt. DRC was plotted and analyzed using the non-linear regression formula: log (inhibitor) vs. response – […] (4 parameters) in GraphPad Prism 5.04. […] Compound toxicity was determined by testing the hit compounds in a 10-pt. DRC against Huh-7.5 in the absence of viral infection and measuring the cell viability using resazurin reduction assay as described above. […] Confirmed hits were selected based on their Selectivity Index (SI), a dimensionless value that indicates the magnitude between cytotoxic concentration and effective concentration, and is calculated as: SI = CC50/EC50.
Background: The colour change of resazurin is a common sign of viable cells or microbes.

For series [8], the system named is DENV1, DENV2, DENV3 and DENV4 infection in Huh-7.5. The series is described as follows: image-based dengue HT/HCA, all four serotypes (primary screening and overall activity). Type of series: cell-based, Dengue virus. How it is done:
as §1
Acquired images were analyzed using our in-house developed image-mining platform (IM). This platform is designed to do high-content screening and directly access the database of images that were sequentially analyzed with specially designed algorithms developed as a customized plug-in to the IM platform. The results of all the analyses were stored in a centralized database. […]
The BioFocus kinase inhibitor library were screened against DENV1, DEN2, DENV3 and DENV4 at 10 µM in 0.5% (v/v) DMSO. […] Compound activity based on percent inhibition and cell toxicity was assessed by IFA and IM analysis as described above. […]
as §7

Series [9] is described as follows: in vitro. To be noted: human. How it is done:
as §4
as §3, with “The ten-point dose-response curves (10-pt DRCs) were plotted using the non-linear regression formula: log (inhibitor) vs. response – variable slope (4 parameters), available in GraphPad Prism 5.04 (GraphPad Software Inc., San Diego, CA).” left out
as §5

Where two headings read alike, the source gives them in different places. Where only a bound is given, the exact number is not on record here.

In the case of `Cc1c(-c2ccc(O)cc2)nn(-c2ccc(O)cc2)c1-c1ccc(OCCN2CCCCC2)cc1` [MPP], the IC50 in [1] worked out at 6.85 µM. The same molecule yielded a CC50 in [2] of 5.86 µM.
As for `CN1c2cc3c(cc2N=C(c2ccc(C(=O)O)cc2)c2ccccc21)C(C)(C)CCC3(C)C` [LE 135], the IC50 in series [1] was 11.7 µM. For the same molecule, the CC50 in series [2] was determined as 23.9 µM.
The matching figures for `C=CCNC(=O)c1cc([N+](=O)[O-])cc2c(=O)[nH]c(Nc3ccc(Cl)c(Cl)c3)nc12` [AZ 10417808]: 82.3 µM and 148 µM.
For `Nc1ccc(CC(N)c2csc(Nc3ncccn3)n2)cc1` (stereo not shown) [CND1243], the EC50 in series [3] (Huh7.5, 96 h) stood at 4.1 µM; in series [4], 6.2 µM; in [5], 1 µM; in series [6], 7.2 µM. In series [7], this molecule showed a CC50 at 72 h of more than 100 µM. For the same molecule, in series [8], the “antiviral activity against all four dengue serotypes” value is “strong antiviral activities against all four dengue serotypes”.
With `CCN(CC)CC1CCN(c2ncc3ncnc(Nc4ccc(F)c(Cl)c4)c3n2)CC1` [BIBU 1361], the IC50 in series [1] was 4.34 µM. In [2], this molecule displayed a CC50 of 4.5 µM.
For `COc1ccc(CC(N)c2csc(Nc3ncccn3)n2)cc1` (stereo not shown) [CND1201], the EC50 in [3] (DENV1, Huh7.5, Huh-7.5, M.O.I. 0.5, 96 hrs) is 0.9 µM; in series [4], 7.6 µM; in series [5], 2.6 µM; in series [6], 5 µM. The molecule also registered a CC50 at 72 h in series [7] of more than 100 µM. Further, in series [8], the “antiviral activity against all four dengue serotypes” value is reported as “strong antiviral activities against all four dengue serotypes”.
As to `NC(=O)c1ncn([C@@H]2O[C@H](CO)[C@@H](O)[C@H]2O)n1` [Ribavirin], the IC50 in series [1] (Dengue virus, Huh7.5) amounted to 42.4 µM. In series [9], the CC50 was 50.4 µM.
